Reference: article PMC3047706 (Chemmedchem, 2010)
Structures can show the parent of a compound that is named as a salt.

target: T1, T. cruzi TryR (Trypanosoma cruzi, UniProt P28593); test: DTNB-coupled TryR microplate assay, […] nm; assay type: biochemical; details: not given
T1 sequence (P28593 whole entry): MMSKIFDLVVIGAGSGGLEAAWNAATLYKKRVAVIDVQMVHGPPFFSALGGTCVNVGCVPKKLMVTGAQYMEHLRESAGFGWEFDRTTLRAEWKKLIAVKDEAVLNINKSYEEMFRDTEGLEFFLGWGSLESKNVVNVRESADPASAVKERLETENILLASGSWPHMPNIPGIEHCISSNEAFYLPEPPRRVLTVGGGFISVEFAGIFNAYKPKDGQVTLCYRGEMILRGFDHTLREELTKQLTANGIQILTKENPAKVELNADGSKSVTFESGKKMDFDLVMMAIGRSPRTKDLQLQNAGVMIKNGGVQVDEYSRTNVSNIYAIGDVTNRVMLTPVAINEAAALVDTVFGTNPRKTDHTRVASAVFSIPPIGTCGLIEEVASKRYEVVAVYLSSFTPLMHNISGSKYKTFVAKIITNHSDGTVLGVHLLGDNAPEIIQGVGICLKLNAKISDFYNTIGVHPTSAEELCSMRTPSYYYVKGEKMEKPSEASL

Row | SMILES | IC50 [µM]
1 | CC(C)CCN[C@@H]1C[C@@H](c2ccc(Cl)c(Cl)c2)c2ccccc21 (relative stereo) [8ii, Trans-[3-(3,4-dichlorophenyl)indan-1-yl]-(3-methylbutyl)amine hydrochloride] | 4.05 ± 0.39
2 | Clc1ccc(CN[C@@H]2C[C@@H](c3ccc(Cl)c(Cl)c3)c3ccccc32)cc1Cl (relative stereo) [8ix, Trans-[3-(3,4-dichlorophenyl)indan-1-yl]-(3,4-dichlorobenzyl)amine] | 45.9 ± 4.2
3 | Clc1ccc([C@@H]2C[C@@H](N3CCOCC3)c3ccccc32)cc1Cl (relative stereo) [8vi, Trans-4-[3-(3,4-dichlorophenyl)indan-1-yl]morpholine] | 173 ± 56
4 | Cc1ccc(CN[C@@H]2C[C@@H](c3ccc(Cl)c(Cl)c3)c3ccccc32)cc1 (relative stereo) [8x, Trans-[3-(3,4-dichlorophenyl)indan-1-yl]-(4-methylbenzyl)amine] | 13 ± 1.6
5 | COc1ccc(CN[C@@H]2C[C@@H](c3ccc(Cl)c(Cl)c3)c3ccccc32)cc1 (relative stereo) [8xi, Trans-[3-(3,4-dichlorophenyl)indan-1-yl]-(4-methoxybenzyl)amine] | 4.14 ± 0.41
6 | CN(C)c1ccc(CN[C@@H]2C[C@@H](c3ccc(Cl)c(Cl)c3)c3ccccc32)cc1 (relative stereo) [8xii, Trans-[3-(3,4-dichlorophenyl)indan-1-yl]-(4-dimethylaminobenzyl)amine] | 7.38 ± 1.21
7 | CC(=O)N[C@@H]1C[C@@H](c2ccc(Cl)c(Cl)c2)c2ccccc21 (relative stereo) [8xiv, Trans-N-[3-(3,4-dichlorophenyl)indan-1-yl]acetamide] | > 200
8 | COc1ccc2c(c1)[C@H](NCCC(C)C)C[C@H]2c1ccc(C)cc1 (relative stereo) [8xix, Trans-[3-(4-methylphenyl)-6-methoxyindan-1-yl]-(3-methylbutyl)amine] | 32.9 ± 4.3
9 | Cc1ccc(S(=O)(=O)N[C@@H]2C[C@@H](c3ccc(Cl)c(Cl)c3)c3ccccc32)cc1 (relative stereo) [8xv, Trans-N-[3-(3,4-dichlorophenyl)indan-1-yl]-4-methylbenzenesulfonamide] | > 200
10 | COc1ccc2c(c1)[C@H](NCCC(C)C)C[C@H]2c1ccc(Cl)c(Cl)c1 (relative stereo) [8xvi, Trans-[3-(3,4-dichlorophenyl)-6-methoxyindan-1-yl]-(3-methylbutyl)amine] | 2.23 ± 0.66
11 | COc1ccc2c(c1)[C@H](NCCC(C)C)C[C@H]2c1ccc(Br)c(Br)c1 (relative stereo) [8xvii, Trans-[3-(3,4-dibromophenyl)-6-methoxyindan-1-yl]-(3-methylbutyl)amine] | 3.15 ± 0.23
12 | COc1ccc2c(c1)[C@H](NCCC(C)C)C[C@H]2c1ccc(Cl)cc1 (relative stereo) [8xviii, Trans-[3-(4-chlorophenyl)-6-methoxyindan-1-yl]-(3-methylbutyl)amine] | 15.8 ± 1.6
13 | COc1ccc2c(c1)[C@@H](NCc1ccccc1)C[C@@H]2c1ccc(Cl)c(Cl)c1 (relative stereo) [8xxi, Trans-benzyl-[3-(3,4-dichlorophenyl)-6-methoxyindan-1-yl]amine] | 3.07 ± 0.45
14 | Clc1ccc(C2CC(NCc3ccccc3)c3ccccc32)cc1Cl (centres unmarked) [8vii] | 8.04 ± 0.91
15 | COc1cccc(C2CC(NCCC(C)C)c3cc(OC)ccc32)c1 (centres unmarked) [8xx] | 125 ± 17

target: T1, T. cruzi TryR; test: DTNB-coupled TryR assay, global fit of mode of inhibition; assay type: biochemical; details: not given

Row | SMILES | Ki [µM]
16 | CC(C)CCN[C@@H]1C[C@@H](c2ccc(Cl)c(Cl)c2)c2ccccc21 (relative stereo) [8ii, Trans-[3-(3,4-dichlorophenyl)indan-1-yl]-(3-methylbutyl)amine hydrochloride] | 3.5 ± 0.4

target: T2, human GR (Homo sapiens, UniProt P00390); test: DTNB-coupled GR microplate assay, single concentration in duplicate; assay type: biochemical; details: read-out: % inhibition at 25 μM
T2 sequence (P00390 44-522): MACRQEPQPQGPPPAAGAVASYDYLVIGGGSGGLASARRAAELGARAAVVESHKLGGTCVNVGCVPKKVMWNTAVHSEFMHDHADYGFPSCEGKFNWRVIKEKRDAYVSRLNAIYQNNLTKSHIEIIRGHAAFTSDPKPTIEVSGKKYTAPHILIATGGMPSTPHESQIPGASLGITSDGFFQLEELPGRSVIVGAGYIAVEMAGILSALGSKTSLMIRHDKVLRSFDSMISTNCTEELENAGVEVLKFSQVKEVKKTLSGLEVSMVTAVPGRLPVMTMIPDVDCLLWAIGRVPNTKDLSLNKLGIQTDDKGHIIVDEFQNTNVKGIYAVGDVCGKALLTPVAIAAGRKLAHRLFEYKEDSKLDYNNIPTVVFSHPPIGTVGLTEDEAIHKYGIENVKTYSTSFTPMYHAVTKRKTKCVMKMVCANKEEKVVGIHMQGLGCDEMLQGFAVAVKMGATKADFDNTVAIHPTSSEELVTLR

Row | SMILES | inhibition at 25 µM [%]
17 | CN[C@@H]1C[C@@H](c2ccc(Cl)c(Cl)c2)c2ccccc21 [compound 3, indatraline] | < 12
